In patent publication EP1002537A1, “Use of melarsoprol for the manufacture of a medicament for treating B-cell lymphoproliferative diseases, such as multiple myeloma” (ASSISTANCE PUBLIQUE, HOPITAUX DE PARIS, priority 1998, dated 2000):

Legend:
LP1 cells [1] = assay: Growth inhibition of plasma cell line (cell count and thymidine incorporation); type: cell-based, human
Experimental: (§1) The human myeloma cell lines were purchased from DMS (Braunschweig, Germany) (NCI H929 and LP1) and from American Type Culture Collections (Rockville, MD) (OPM2 and U266). NCI, OPM2, U266 (and all studied non plasmacytic cell lines) were cultured in RPMI 1640 supplemented with 1% penicillin/streptomycin, 1 mmol/L L-glutamine and 10% heat-inactivated fetal calf serum at 37°C, 5% CO2 in air. LP1 cells were cultured in similar conditions, in Iscove's medium.
(§2) Cells were incubates with or without 10^-5 to 10^-8 mol/L melarsoprol up to 96 hours, without any adjustment after culture initiation. Cell number and viability were determined by trypan blue exclusion. Morphologic analysis was performed using Wright-Giema and DAPI (4'-6-diamidino-2-phenylindole) staining on cytocentrifuge preparations. For proliferation assays, aliquots of 2x10^4 cells in triplicate were incubated in 96-well plates and 3H-thymidine (3H-TdR) (1 µCi) was added for the final 8 hours of the culture period. Cells were harvested onto glass filter and ^3H-TdR incorporation was counted on a liquid scintillation counter.
(§3) The growth of NCI, U266, OPM2 and LP1 plasma cell lines in medium alone or in the presence of melarsoprol (10^-5 to 10^-8 mol/L) was assessed by cell count and thymidine incorporation.

NCI cells [2] = assay: as above; type: cell-based, human
Experimental: as §1, §2, §3

OPM2 cells = assay: as above; type: cell-based, human
Experimental: as §1, §2, §3

U266 = assay: as above; type: cell-based, human; conditions: U266 cells
Experimental: as §1, §2, §3

NCI cells [3] = assay: FACS analysis after annexin-V and propidium iodide staining; type: cell-based, human; conditions: 10^-6 mol/L
Experimental: (§4) Direction of phosphatidylserine on the outer leaflet of apoptotic cells was performed using Annexin-V-FLUOS (Boehringer Mannheim, Germany) and propidium iodide (PI) according to the manufacturer's recommendations. Expression of cell surface CD38, CD138 (BB-4° and CD15 antigens was studied using corresponding fluorescein isothiocyanate (FITC) or phycierythrin conjugated antibodies that were purchased from Diaclone (Besançon, France) and Becton Dickinson (San Jose, Ca.). Flow cytometry was performed with a FACSean apparatus (Beckton Dickinson).
(§5) FACS analysis of NCI and U266 cells after staining with fluorescein-labelled annexin-V and propidium iodide was performed to detect the translocation of phosphatidylserine from the inner part of plasma membrane to the outer layer which accurs in the early stages of apoptosis. Before staining, cells were cultivated with medium alone) melarsoprol (10^-6 mol/L) or dexamethasone (Dex, 10^-6 mol/L) over a time period of 48 hours. […] During the same time; the number of double positive necrotic cells increased and, at 18 hours, only very few double-negative living cells were detectable. Apoptosis was moderate in cells cultured with Dex and in control culture. Annexin-positive, PI-negative apoptotic U266 cells were also observed in the presence of melarsoprol (18% of residual cells after a 18-hour culture).

U266 cells = assay: as above; type: cell-based, human; conditions: 10^-6 mol/L, 18-hour culture
Experimental: as §4, §5

[4] = tested on: plasma-cell enriched preparations of myeloma patients; assay: Growth (3H TdR uptake) of fresh myeloma cells; type: cell-based; conditions: Homo sapiens; three plasma-cell preparations; read-out: IC50 (inhibition of cell growth)
Description: (§6) Eleven patients with multiple myeloma (MM) or plasma cell leukemia (PCL) were studied after informed consent. Mononuclear cells were separated by Ficoll-Hypaque centrifugation from peripheral blood of 4 patients with PCL (including 2 with a primary PCL), from bone marrow (BM) of 6 patients with MM (including 4 at diagnosis) and from the pleural effusion of a newly diagnosed myeloma patient. Plasma cell-enriched preparations were obtained by centrifugation of mononuclear cells on a Percoll gradient, as previously described (Iwato K, et al, Blood 72:562, 1988). Plasma cell percentages were determined after intracytoplasmic staining using fluorescein-conjugated antibodies to human immunoglobulin (Ig) heavy and light chains (from Nordic, Tilburg, The Netherlands).Short-term cultures of blood and BM mononuclear cells and of plasma cell-enriched preparations were performed in RPMI 1640, in similar conditions as cell lines.
as §2, with “For proliferation assays, aliquots of 2x10^4 cells in triplicate were incubated in 96-well plates and 3H-thymidine (3H-TdR) (1 µCi) was added for the final 8 hours of the culture period.” left out, “counter. […]” for “counter.”

[5] = tested on: T, myeloid and epithelial cell lines; assay: Comparative example: growth of other hematopoietic cell types; type: cell-based
Experimental: as §1, §2
In addition to plasma cell, other hematopoietic cell types were also studied. The inhibition of growth was marginal in T, myeloid and epithelial cell lines.

myeloma cells = assay: Growth and survival of myeloma cells (summary statement); type: cell-based, human
Description: According to the present invention, melarsoprol reduces the growth and survival of myeloma cells by triggering programmed cell death.
This supports the clinical efficacy of the melarsoprol in patients with multiple myeloma. Indeed, melarsoprol is active at concentrations ranging from 10^-6 to 10^-8 mol/L, which correspond to the in vivo pharmacological concentrations of the drugs.

[6] = tested on: Mononuclear cells purified from peripheral blood of normal donors; assay: Pokeweed mitogen (PWM)-induced plasma cell differentiation of normal lymphocytes; type: cell-based, human; conditions: 10^-6 mol/L and 5 x10^-7 mol/L
Experimental: Mononuclear blood cells of 3 normal donors were cultured in the presence of PWM (from Life Technology, Cergy Pontoise, diluted at 1/100) and melarsoprol (5 x 10^-7 or 10^-6 mol/L). Plasma cells were numerated at day 7 after immunofluorescence staining with fluorescein-conjugated antibodies directed against human Ig chains, IgM concentrations in supernatants were also measured at day 5, by ELISA, as previously described (Grillot-Courvalin C et al, Scand. J. Immunol. 23:679, 1986).
Mononuclear cells purified from peripheral blood of normal donors were incubated with pokeweed mitogen in the presence of two different concentrations (10^-6 mol/L and 5 x10^-7 mol/L) of the organic or of the inorganic arsenical.

leukemia = conditions: IV daily for 3 days, repeated weekly for 3 weeks, 1 to 3,6mg/kg; cited from earlier work
[7] = tested on: plasma cells (CD38^higt +); assay: FACS analysis of patients' bone marrow mononuclear cells (annexin V with CD38 or CD15); type: cell-based, human
Description: as §6, §4
(§7) To comparatively assess the effects of melarsoprol on myeloid and plasma cells, bone marrow mononuclear cells obtained from patients with newly diagnosed multiple myeloma were cultured for 5 days in the presence of 10^-6 mol/L melarsoprol. […] Indeed, in a representative study a bone marrow sample initiality containing 30% of plasma cells (CD38^higt +), 12% of the latter expressed annexin V after 2 days of culture with 10^-6 mol/L melarsoprol, whereas less than 1% of myeloid cells (CD38^low, CD15 +) were positive for the apoptosis marker. At day 5, the plasma cell number had much more decreased than the myeloid cell number and viable cells (propidium iodide negative) contained 7.8 % of CD38^higt positive cells, as compared to 22.5 % in control culture, performed with medium alone. CD15+ myelo-monocytic cell percentages were similar in arsenic-exposed cultures and in controls, with a decrease in the CD15^low+ fraction.

[8] = tested on: myeloid cells (CD38^low, CD15 +); assay: as above; type: cell-based, human
Description: as §6, §4, §7

human myeloma cells = assay: SCID mice transplanted with human myeloma cells: efficacy; type: in vivo; conditions: 30µg/g 5 days a week IP, 30 to 40 days
Experimental: The following studies of melarsoprol conducted in SCID mice transplanted with human myeloma cells confirm in vivo the in vitro effects of the arsenical compound.
(§8) SCID mice were irradiated before the intra-peritoneal (IP) injection of 3 to 5*10^6 plasma cells purified from peripheral blood of patients with plasma cell leukemia. Engrafment was assessed by bi-monthly measurement of the human monoclonal immunoglobulin (HuMIg) concentration in mouse serum, using an ELISA.
Mice injected with the cells from 3 different patients developed the human tumor and were treated with melarsoprol during 30 to 40 days.

[9] = tested on: secreting multiple myeloma; assay: Bi-central, open, non-comparative study in patients with secreting multiple myeloma; type: in vivo; conditions: IV 1mg/kg first day, then 2mg/kg daily, not longer than 56 days
Experimental: A bi-central, open, non-comparative study of melarsoprol in patients suffering from secreting multiple myeloma was carried out.
Patients with secreting multiple myeloma included in the study had been pretreated with and were unresponsive to a minimum of 3 VAD (vincristine-adriamycine-dexamethasone) or VAMP (vincristine-adriamycine-methylprednisolone) chemotherapy regimens.
Patients are treated daily with co-administration of anti-convulsive and B1 vitamin for 56 days if allowed by toxicity.
At the first day, the IV solution of melarsoprol (1mg/kg) is administered in 3 intravenous injections.
The IV solution of melarsoprol (2mg/kg) is then administered daily and for a time period not longer than 56 days in the same manner. […]

LP1 cells [10] = assay: Cell survival by trypan blue exclusion; type: cell-based, human; conditions: LP1, after 48 hours, 10-6 mol/L melarsoprol
Experimental: as §1, §2
(§9) Treatment of plasma cell lines with melarsoprol led to a dose- and time dependent inhibition of cell survival, as determined using trypan blue exclusion. After 48 hours, in the presence of 10-6 mol/L melarsoprol , percentage of trypan blue negative cells were 15 ± 7.2, 56 ± 11, 62 ± 5 8, and 81 ± 6.8% in NCI, OPM2, U266 and LP1 cells, respectively. Cell death was mainly due to apoptosis, as shown by the characteristic morphological changes in nuclei as well as by the TUNEL method.

OPM2 = assay: Cell survival by trypan blue exclusion; type: cell-based, human; conditions: OPM2, after 48 hours, 10-6 mol/L melarsoprol
Experimental: as §1, §2, §9

NCI = assay: Cell survival by trypan blue exclusion; type: cell-based, human; conditions: after 48 hours, 10-6 mol/L melarsoprol
Experimental: as §1, §2, §9

[11] = SCID mice transplanted with human myeloma cells: toxicity and arsenic amounts; type: in vivo; conditions: any studied organ, especially the liver
Experimental: as §8
Arsenic amounts in mouse serum and tissues were in the expected 〈〈 pharmacological 〉〉 range.

[12] = tested on: plasma-cell enriched preparations of myeloma patients; assay: Viability (trypan blue exclusion) of fresh myeloma cells; type: cell-based, human; conditions: 48 hours, n=4 (40 to 77.5%); 10.5 ± 14.7% without the drug
Description: as §6
as §2, with “For proliferation assays, aliquots of 2x10^4 cells in triplicate were incubated in 96-well plates and 3H-thymidine (3H-TdR) (1 µCi) was added for the final 8 hours of the culture period.” left out, “counter. […]” for “counter.”

NCI cells [13] = assay: DNA fragmentation by agarose gel electrophoresis of genomic DNA; type: cell-based, human; conditions: NCI cells treated with 10^-6 mol/L
[14] = 2 days of culture, 10^-6 mol/L, representative bone marrow sample

With `Nc1nc(N)nc(Nc2ccc([As]3SCC(CO)S3)cc2)n1` (stereo not drawn) [melarsoprol, 2-p-[(4,6-diamino-s-triazin-2-yl)amino]phenyl-4-hydroxymethyl-1,3,2-dithiarsoline] the IC50 (LP1 cells [1]; Homo sapiens, LP-1, LP1 cells, growth inhibition) was ~1 µM, the “time-dependent inhibition of growth” value (LP1 cells [1]; LPI cells) was “significant but less important inhibition of growth” and the “time-dependent inhibition of growth” value (NCI cells [2]) was “marked time-dependent inhibition of growth”. The IC50 (NCI cells [2]; Homo sapiens, 72 hours, cell number and thymidine incorporation, read-out: 50% growth inhibitory concentration (IC50) (converted)) was 0.3 µM, the “time-dependent inhibition of growth” value (OPM2 cells) was “marked time-dependent inhibition of growth” and the IC50 (OPM2 cells; Homo sapiens, OPM-2, growth inhibition) was ~0.1 µM. For the same compound, the IC50 (U266; Homo sapiens, U-266, growth inhibition) was ~1 µM, the “time-dependent inhibition of growth” value (U266) was “significant but less important inhibition of growth” and the double-negative living cells (NCI cells [3]; at 18 hours) was “only very few”. For the same compound, the “apoptosis (annexin-positive, PI-negative apoptotic cells)” value (NCI cells [3]; time period of 48 hours) was “rapidly induced apoptosis”, the “Annexin-positive, PI-negative apoptotic U266 cells” value (U266 cells) was 18 % of residual cells and the IC50 [4] was ~0.1 µM. The inhibition of growth [5] was “marginal”, the active concentrations (myeloma cells) was 10^-6 to 10^-8 mol/L and the “plasma cell differentiation induced by the mitogen” value [6] was “only slightly inhibited”. The CNS toxicity (leukemia) was “excessive CNS (central nervous system) toxicity”, the anti-leukemic activity (leukemia) was “no major anti-leukemic activity” and the “plasma cells (CD38^higt +) expressing annexin V” value [7, 14] was 12%. For the same compound, the percent CD38-high plasma cells among viable cells at 1 µM ([7]; Homo sapiens, 120 h, read-out: CD38^higt positive cells among viable cells (propidium iodide negative)) was 7.8%, the “myeloid cells (CD38^low, CD15 +) positive for the apoptosis marker” value [8, 14] was “less than 1%” and the “CD15+ myelo-monocytic cell percentages versus controls” value ([8]; day 5, 10^-6 mol/L) was “similar”. The remissions (human myeloma cells; all evaluable experiment) was “remissions have been achieved”, the “level of the HuMIg in mouse serum” value (human myeloma cells; undetectable in some animals) was “dramatic decrease” and the “Efficiency for treating multiple myeloma and reduced side-effects” value [9] was “verified”. The “percentage of trypan blue negative cells” value (LP1 cells [10]) was 81 ± 6.8%, the “percentage of trypan blue negative cells” value (OPM2) was 56 ± 11% and the “percentage of trypan blue negative cells” value (NCI) was 15 ± 7.2%. For the same compound, the “toxic lesions in studied organs” value [11] was “no evidence of toxic lesions”, the “mean decline in cell viability” value [12] was 52.5 ± 17.3% and the DNA fragmentation (NCI cells [13]) was “typical DNA ladders”.
